Results taken from patent US20240261417A1, “SOS1 DEGRADING AGENT AND PREPARATION METHOD THEREFOR AND APPLICATION THEREOF” (SHANGHAI LEADINGTAC PHARMACEUTICAL CO. LTD., priority 2021, published 2024).

Columns and labels:
SOS1 protein [1] = biological target: T1, SOS1 protein (Homo sapiens, UniProt Q07889); assay: SOS1 degradation assay (Western blot), A-427 cells; format: cell-based; parameters: host or cells: A-427 (human cancer cell lines); conditions: 24 h; for DC50: read-out: A427 (G12D) DC50; for Dmax: read-out: A427 (G12D) Dmax
T1 sequence (Q07889 1-1333): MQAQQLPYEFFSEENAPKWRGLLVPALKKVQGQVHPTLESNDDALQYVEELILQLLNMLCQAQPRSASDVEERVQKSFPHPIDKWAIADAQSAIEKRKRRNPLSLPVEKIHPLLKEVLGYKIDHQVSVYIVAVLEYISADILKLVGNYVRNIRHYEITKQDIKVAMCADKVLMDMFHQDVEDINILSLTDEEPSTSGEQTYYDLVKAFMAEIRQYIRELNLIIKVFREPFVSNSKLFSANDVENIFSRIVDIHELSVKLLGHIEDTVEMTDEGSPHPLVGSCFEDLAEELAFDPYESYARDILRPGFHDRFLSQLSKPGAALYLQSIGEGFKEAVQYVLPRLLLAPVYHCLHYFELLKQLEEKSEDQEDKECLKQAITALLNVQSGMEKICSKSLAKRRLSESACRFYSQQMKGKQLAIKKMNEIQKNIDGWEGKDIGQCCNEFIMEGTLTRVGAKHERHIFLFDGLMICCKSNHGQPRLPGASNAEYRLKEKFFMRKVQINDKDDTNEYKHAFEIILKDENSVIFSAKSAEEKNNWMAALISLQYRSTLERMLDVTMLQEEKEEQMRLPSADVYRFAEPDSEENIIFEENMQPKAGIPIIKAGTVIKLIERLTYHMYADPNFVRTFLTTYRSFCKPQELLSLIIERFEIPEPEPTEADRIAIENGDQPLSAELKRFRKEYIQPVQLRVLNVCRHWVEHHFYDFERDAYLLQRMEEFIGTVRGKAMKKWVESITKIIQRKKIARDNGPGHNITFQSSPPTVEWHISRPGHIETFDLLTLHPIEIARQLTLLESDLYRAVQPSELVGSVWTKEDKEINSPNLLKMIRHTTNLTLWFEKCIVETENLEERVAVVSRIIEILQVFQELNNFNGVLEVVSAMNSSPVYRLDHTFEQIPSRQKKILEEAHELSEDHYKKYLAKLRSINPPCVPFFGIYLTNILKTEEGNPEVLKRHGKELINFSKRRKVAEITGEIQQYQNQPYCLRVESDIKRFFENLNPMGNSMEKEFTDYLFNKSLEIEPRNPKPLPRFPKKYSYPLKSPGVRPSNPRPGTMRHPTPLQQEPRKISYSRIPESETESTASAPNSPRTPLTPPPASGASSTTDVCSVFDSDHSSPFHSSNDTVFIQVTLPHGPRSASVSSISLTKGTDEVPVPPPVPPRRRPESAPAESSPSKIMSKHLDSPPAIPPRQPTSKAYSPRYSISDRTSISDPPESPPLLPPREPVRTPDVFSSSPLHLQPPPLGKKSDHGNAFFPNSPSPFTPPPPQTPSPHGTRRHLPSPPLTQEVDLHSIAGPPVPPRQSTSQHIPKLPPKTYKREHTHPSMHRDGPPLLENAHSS
Procedure: (§1) The specific procedures were as follows:
(§2) 0.95 mL of cells were seeded into each well of a 24-well cell culture plate to achieve a cell density of 5×10^5 cells/well; the cell plate was incubated in an incubator at 37° C. with 5% CO2 overnight. Then 50 μL of the compound solution after dilution was added to each of the wells with the corresponding cells, so that the final concentration of the compound was in a range of 0.03-3000 nM. […] After dosing, the cell plate was incubated in an incubator at 37° C. with 5% CO2 for 24 h. […] After the plate was left to stand on ice for 30 min, the protein lysate in each well was transferred to a 1.5 mL centrifuge tube and centrifuged at 15000 g for 20 min at 4° C. The cell lysate supernatant after centrifugation was cryopreserved at −80° C. for testing and was used for determining the degradation level of the SOS1 protein by a WB method. The concentration of total protein in the cell lysate supernatant was determined using the BCA Protein Quantification Kit (Tiangen, PA115-02).
(§3) The concentration of total protein in the cell lysate was determined by BCA. The total protein was adjusted to 0.5 μg/μL with PBS and 5× SDS-PAGE protein loading buffer (Beyotime, P0015L), incubated in a water bath at 100° C. for 15 min, incubated in an ice bath on ice for 5 min, centrifuged at 14000 g for 1 min at 4° C., and mixed well as a loading sample for WB. Protein electrophoresis was performed on a precast gel (KeyGEN, KGMGO10W15) with a loading volume of 10 μL (total protein: 5 μg) using a Tris-MOPS-SDS running solution (Adamas, P1598253) at a constant voltage of 120 V for 55 min. After the electrophoresis, the protein on the gel strip was transferred to a PVDF membrane at a constant current of 250 mA for 65 min. After the membrane transfer, the membrane was incubated in 1× QuickBlock blocking buffer (Beyotime, P0235) for 30 min at room temperature. […] The protein map was subjected to gray value analysis by the chemiluminescence imaging system from Clinx. […] Then the degradation rate was calculated by comparing the gray correction value with the gray correction value of the control group. Then nonlinear curve fitting was performed by GraphPad Prism 8 in the logarithmic concentration-inhibition rate to obtain the DC50 and Dmax values of the compounds.

SOS1 protein [2] = biological target: T1, SOS1 protein; assay: SOS1 degradation assay (Western blot), DLD-1 cells; format: cell-based; parameters: host or cells: DLD-1 (human cancer cell lines); conditions: 24 h; for DC50: read-out: DLD-1 (G13D) DC50; for Dmax: read-out: DLD-1 (G13D) Dmax
Procedure: as §1, §2, §3

SMILES	DC50 (SOS1 protein [1])	Dmax (SOS1 protein [1])	DC50 (SOS1 protein [2])	Dmax (SOS1 protein [2])
COc1cc2nc(C)nc(N[C@H](C)c3cc(N)cc(C(F)(F)F)c3)c2cc1[C@H]1CC[C@H](C(=O)N2CCN(CCC3CCC4(CC3)CCN(C(=O)c3ccc(Cl)c(N5CCC(=O)NC5=O)c3)CC4)CC2)CC1 [Example 1, 1-(5-(9-(2-(4-((1R,4R)-4-(4-(((R)-1-(3-amino-5-(trifluoromethyl)phenyl)ethyl)amino)-7-methoxy-2-methylquinazolin-6-yl)cyclohexane-1-carbonyl)piperazin-1-yl)ethyl)-3-azaspiro[5.5]undecane-3-carbonyl)-2-chlorophenyl)dihydropyrimidine-2,4(1H,3H)-dione]	< 50 nM	80 to 100%	< 50 nM	80 to 100%
COc1cc2nc(C)nc(N[C@H](C)c3cccc4c3CCS4(=O)=O)c2cc1[C@H]1CC[C@H](C(=O)N2CCN(CC3CCC4(CC3)CCN(C(=O)c3ccc(Cl)c(N5CCC(=O)NC5=O)c3)CC4)CC2)CC1 [Example 10, 1-(2-chloro-5-(9-((4-((1R,4R)-4-(4-(((R)-1-(1,1-dioxo-2,3-dihydrobenzo[b]thiophen-4-yl)ethyl)amino)-7-methoxy-2-methylquinazolin-6-yl)cyclohexane-1-carbonyl)piperazin-1-yl)methyl)-3-azaspiro[5.5]undecane-3-carbonyl)phenyl)dihydropyrimidine-2,4(1H,3H)-dione]	< 50 nM	80 to 100%	< 50 nM	80 to 100%
CNCc1ccccc1-c1csc([C@@H](C)Nc2nc(C)nc3cc(OC)c([C@H]4CC[C@H](C(=O)N5CCN(CC6CCC7(CC6)CCN(C(=O)c6ccc(OC)c(N8CCC(=O)NC8=O)c6)CC7)CC5)CC4)cc23)c1 [Example 73, 1-(2-methoxy-5-(9-((4-((1R,4R)-4-(7-methoxy-2-methyl-4-(((R)-1-(4-(2-((methylamino)methyl)phenyl)thien-2-yl)ethyl)amino)quinazolin-6-yl)cyclohexane-1-carbonyl)piperazin-1-yl)methyl)-3-azaspiro[5.5]undecane-3-carbonyl)phenyl)dihydropyrimidine-2,4(1H,3H)-dione]	< 50 nM	80 to 100%	50 to 100 nM	80 to 100%

The next lines start with the values.

DC50 (SOS1 protein [1])	Dmax (SOS1 protein [1])	DC50 (SOS1 protein [2])	Dmax (SOS1 protein [2])	SMILES
< 50 nM	80 to 100%	100 to 500 nM	80 to 100%	COc1cc2nc(C)nc(N[C@H](C)c3cc(N)cc(C(F)(F)F)c3)c2cc1[C@H]1CC[C@H](C(=O)N2CCN(CCOCC3CCN(C(=O)c4ccc(Cl)c(N5CCC(=O)NC5=O)c4)CC3)CC2)CC1 [Example 33, 1-(5-(4-((2-(4-((1R,4R)-4-(4-(((R)-1-(3-amino-5-(trifluoromethyl)phenyl)ethyl)amino)-7-methoxy-2-methylquinazolin-6-yl)cyclohexane-1-carbonyl)piperazin-1-yl)ethoxy)methyl)piperidine-1-carbonyl)-2-chlorophenyl)dihydropyrimidine-2,4(1H,3H)-dione]
< 50 nM	80 to 100%	< 50 nM	80 to 100%	COc1cc2nc(C)nc(N[C@H](C)c3cc(N)cc(C(F)(F)F)c3)c2cc1[C@H]1CC[C@H](C(=O)N2CCN(CC3CCC4(CC3)CCN(C(=O)c3ccc(Cl)c(N5CCC(=O)NC5=O)c3)CC4)CC2)CC1 [Example 2, 1-(5-(9-((4-((1R,4R)-4-(4-(((R)-1-(3-amino-5-(trifluoromethyl)phenyl)ethyl)amino)-7-methoxy-2-methylquinazolin-6-yl)cyclohexane-1-carbonyl)piperazin-1-yl)methyl)-3-azaspiro[5.5]undecane-3-carbonyl)-2-chlorophenyl)dihydropyrimidine-2,4(1H,3H)-dione]
< 50 nM	50 to 80%	50 to 100 nM	80 to 100%	COc1cc2nc(C)nc(N[C@H](C)c3cc(N)cc(C(F)(F)F)c3)c2cc1[C@H]1CC[C@H](C(=O)N2CCC(CCOCC3CCN(C(=O)c4ccc(Cl)c(N5CCC(=O)NC5=O)c4)CC3)CC2)CC1 [Example 19, 1-(5-(4-((2-(1-((1R,4R)-4-(4-(((R)-1-(3-amino-5-(trifluoromethyl)phenyl)ethyl)amino)-7-methoxy-2-methylquinazolin-6-yl)cyclohexane-1-carbonyl)piperidin-4-yl)ethoxy)methyl)piperidine-1-carbonyl)-2-chlorophenyl)dihydropyrimidine-2,4(1H,3H)-dione]
